Like-named read-outs stand apart in the source and are kept apart here. Numbered stars: 1 amine (or outer) side, 2 acyl side, 3 side chain; on linkers, the order of the positions; unused ones are H or OH. Square brackets hold non-standard residues; d marks the D form. Peptide text beside a SMILES is read from it. * marks the point of attachment. Propanoyl(3-indol-3-yl) = O=C(CCc1c[nH]c2ccccc12)*; Propanoyl(3,3-Ph2) = O=C(CC(c1ccccc1)c1ccccc1)*; Propanoyl(3-(4-F-phenyl)) = O=C(CCc1ccc(F)cc1)*; dTrp(5-F) = N[C@H](Cc1c[nH]c2ccc(F)cc12)C(=O)O; Hydrocinnamoyl(2,4-F2) = O=C(CCc1ccc(F)cc1F)*; Phe(4-Cl) = N[C@@H](Cc1ccc(Cl)cc1)C(=O)O; 1Nal = N[C@@H](Cc1cccc2ccccc12)C(=O)O; d1Nal = N[C@H](Cc1cccc2ccccc12)C(=O)O; d2Nal = N[C@H](Cc1ccc2ccccc2c1)C(=O)O; Lys(iPr) = CC(C)NCCCC[C@H](N)C(=O)O; NMeY = CN[C@@H](Cc1ccc(O)cc1)C(=O)O; Benzoyl(4-F) = O=C(c1ccc(F)cc1)*; d2Thi = N[C@H](Cc1cccs1)C(=O)O; NMeL = CN[C@@H](CC(C)C)C(=O)O; dNMeL = CN[C@H](CC(C)C)C(=O)O; X16 = O=C(c1cc2ccccc2[nH]1)*; Nicotinoyl = O=C(c1cccnc1)*; X12 = O=C(c1ccc(F)c(Cl)c1)*; NMeS = CN[C@@H](CO)C(=O)O; Morpholide = C1CN(*)CCO1; Orn = NCCC[C@H](N)C(=O)O; PhAc = O=C(Cc1ccccc1)*; X6 = O=C(CCc1ccccc1F)*; CO = O=C([*:1])[*:2]
Target: T1, LHRH receptors (Rattus norvegicus, UniProt P30969)
T1 construct: Pituitary membranes containing LHRH receptors are prepared in batches from quick-frozen rat pituitaries; tissue Hilltop Labs; host or cells: rat pituitary membranes
T1 sequence (P30969 1-327): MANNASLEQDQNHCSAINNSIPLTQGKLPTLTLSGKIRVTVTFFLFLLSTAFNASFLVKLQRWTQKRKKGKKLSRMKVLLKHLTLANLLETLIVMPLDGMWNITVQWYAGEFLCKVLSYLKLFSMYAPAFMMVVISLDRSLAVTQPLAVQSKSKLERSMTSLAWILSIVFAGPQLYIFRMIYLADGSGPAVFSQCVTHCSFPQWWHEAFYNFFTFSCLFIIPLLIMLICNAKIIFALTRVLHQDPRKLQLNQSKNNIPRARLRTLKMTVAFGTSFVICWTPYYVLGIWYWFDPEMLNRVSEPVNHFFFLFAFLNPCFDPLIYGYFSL
Test: Receptor Binding (radioligand receptor binding assay)
Conditions: rat pituitary membranes, 2 hours at 4° C.

[1] = table 3, radioiodinated [D-Leu^6 -des Gly^10 ]-LHRH ethyl amide 50 pM, read-out: Receptor Binding pkI (converted)
[2] = table 4, radioligand 50 pM, read-out: Receptor Binding pkI (converted)

Ki [1] | Ki [2] | Structure (SMILES) | further results
4.27 nM | – | CC(C)C[C@H](NC(=O)[C@@H](Cc1ccc2ccccc2c1)NC(=O)[C@H](Cc1ccc(O)cc1)NC(=O)[C@H](CO)NC(=O)CCc1c[nH]c2ccccc12)C(=O)N[C@@H](CCCNC(=N)N)C(=O)N1CCC[C@H]1C(=O)NCC(N)=O [Compound 47, N-(3-(3-Indole)propionyl)-Ser-Tyr-D-2-Nal-Leu-Arg-Pro-Gly-NH2] ({Propanoyl(3-indol-3-yl)}-SY[d2Nal]LRPG-NH2) | –
0.0955 nM | – | CCNC(=O)[C@@H]1CCCN1C(=O)[C@H](CCCN=C(N)N)NC(=O)[C@H](CC(C)C)NC(=O)[C@@H](Cc1c[nH]c2ccccc12)NC(=O)[C@H](Cc1ccc(O)cc1)NC(=O)[C@H](CO)N(C)C(=O)[C@@H](Cc1c[nH]c2ccccc12)NC(=O)CCc1ccc(F)cc1 [Compound 121] ({Propanoyl(3-(4-F-phenyl))}-[dW][NMeS]Y[dW]LRP-NHEt) | –
– | 0.0339 nM | CC(C)C[C@H](NC(=O)[C@@H](CCCCN)NC(=O)[C@H](Cc1ccc(O)cc1)N(C)C(=O)[C@H](CO)NC(=O)[C@@H](Cc1ccc2ccccc2c1)NC(=O)CCc1ccc(F)cc1)C(=O)N[C@@H](CCCNC(=N)N)C(=O)N1CCC[C@H]1C(=O)N[C@H](C)C(N)=O [Compound 186, (3-10)[N-(3-(4-Fluorophenyl)propionyl)-D-2-Nal^3 -NMeTyr^5 -D-Lys^6 -D-Ala^10]LHRH] ({Propanoyl(3-(4-F-phenyl))}-[d2Nal]S[NMeY][dK]LRP[dA]-NH2) | –
– | – | CCNC(=O)[C@@H]1CCCN1C(=O)[C@H](CCCNC(=N)N)NC(=O)[C@H](CC(C)C)NC(=O)[C@@H](Cc1c[nH]c2ccccc12)NC(=O)[C@H](Cc1ccc(O)cc1)NC(=O)[C@H](CO)NC(=O)CC(c1ccccc1)c1ccccc1 [Compound 14, (4-9)[N-(3-Diphenylpropionyl)-Ser^4 -D-Trp^6 -Pro^9 -NHEt]LHRH] ({Propanoyl(3,3-Ph2)}-SY[dW]LRP-NHEt) | Ki (Receptor Binding pkI, table 3, radioiodinated [D-Leu^6 -des Gly^10 ]-LHRH ethyl amide 50 pM): 15.8 nM
– | 1.91 nM | CC(=O)NCCC[C@H](NC(=O)c1ccc(F)cc1)C(=O)N[C@H](Cc1cccc2ccccc12)C(=O)N[C@@H](CO)C(=O)N[C@@H](Cc1ccc(O)cc1)C(=O)N[C@H](CCCCNC(=O)c1cccnc1)C(=O)N[C@@H](CC(C)C)C(=O)N[C@@H](CCCNC(=N)N)C(=O)N1CCC[C@H]1C(=O)N[C@H](C)C(N)=O [Compound 217, N-alpha-(4-Fluorobenzoyl)-Orn(N-delta-acetyl)-D-1-Nal-Ser-Tyr-D-Lys(N-epsilon-nicotinyl)-Leu-Arg-Pro-D-AlaNH2] ({Benzoyl(4-F)}-[Orn](Ac)[d1Nal]SY[dK](Nicotinoyl)LRP[dA]-NH2) | –
– | 0.0269 nM | CC(C)C[C@H](NC(=O)[C@@H](Cc1c[nH]c2ccccc12)NC(=O)[C@H](Cc1ccc(O)cc1)NC(=O)[C@H](CO)NC(=O)[C@H](Cc1c[nH]c2ccccc12)NC(=O)[C@H](Cc1cccc2ccccc12)NC(=O)N1CCOCC1)C(=O)N[C@@H](CCCNC(=N)N)C(=O)N1CCC[C@H]1C(=O)N[C@H](C)C(N)=O [Compound 223, (2-10)[N-(alpha-Morpholinocarbonyl)-1-Nal^2 -D-Trp^6 -D-Ala^10]LHRH] ({Morpholide-CO}-[1Nal]WSY[dW]LRP[dA]-NH2) | –
– | 0.049 nM | CCNC(=O)[C@@H]1CCCN1C(=O)[C@H](CCCN=C(N)N)NC(=O)[C@H](CC(C)C)NC(=O)[C@@H](Cc1c[nH]c2ccccc12)NC(=O)[C@H](Cc1ccc(O)cc1)N(C)C(=O)[C@H](CO)NC(=O)[C@@H](Cc1c[nH]c2ccccc12)NC(=O)CCc1ccc(F)cc1F [Compound 155, (3-9)[N-(3-(2,4-diFluorophenyl)propionyl) -D-Trp^3,6 -NMeTyr^5 -Pro^9 NHEt]LHRH] ({Hydrocinnamoyl(2,4-F2)}-[dW]S[NMeY][dW]LRP-NHEt) | –
– | 0.049 nM | CCNC(=O)[C@@H]1CCCN1C(=O)[C@H](CCCNC(=N)N)NC(=O)[C@H](CC(C)C)NC(=O)[C@@H](Cc1c[nH]c2ccccc12)NC(=O)[C@H](Cc1ccc(O)cc1)NC(=O)[C@H](CO)NC(=O)[C@@H](Cc1c[nH]c2ccc(F)cc12)NC(=O)CCc1ccc(F)cc1 [Compound 143, (3-9)[N-(3-(4-Fluorophenyl)propionyl)-D -5-F-Trp^3 -D-Trp^6 -Pro^9 NHEt]LHRH] ({Propanoyl(3-(4-F-phenyl))}-[dTrp(5-F)]SY[dW]LRP-NHEt) | –
0.275 nM | – | CCNC(=O)[C@@H]1CCCN1C(=O)[C@H](CCCNC(=N)N)NC(=O)[C@H](CC(C)C)NC(=O)[C@@H](Cc1c[nH]c2ccccc12)NC(=O)[C@H](Cc1ccc(O)cc1)NC(=O)[C@H](CO)NC(=O)[C@H](Cc1c[nH]c2ccccc12)NC(=O)C(CC(=O)N1CCOCC1)Cc1cccc2ccccc12 (single isomer, unassigned) [Compound 130] | –
22.4 nM | – | CCNC(=O)[C@@H]1CCCN1C(=O)[C@H](CCCNC(=N)N)NC(=O)[C@H](CC(C)C)NC(=O)[C@@H](CC(C)C)N(C)C(=O)[C@H](Cc1ccc(O)cc1)NC(=O)[C@H](CO)NC(=O)CCc1c[nH]c2ccccc12 [Compound 58, N-(3-(3-Indole)propionyl)-Ser-Tyr-D-N-Me-Leu-Leu-Arg-Pro-NHEt] ({Propanoyl(3-indol-3-yl)}-SY[dNMeL]LRP-NHEt) | –
– | 0.00832 nM | CC(C)C[C@H](NC(=O)[C@@H](CCCCN)NC(=O)[C@H](Cc1ccc(O)cc1)N(C)C(=O)[C@H](CO)NC(=O)[C@@H](Cc1cccc2ccccc12)NC(=O)CCc1ccc(F)cc1)C(=O)N[C@@H](CCCCNC(C)C)C(=O)N1CCC[C@H]1C(=O)N[C@H](C)C(N)=O [Compound 199, (3-10)[N-(3-(4-Fluorophenyl)propionyl)-D-1-Nal^3 -NMeTyr^5 -D-Lys^6 -Lys^8 (N-epsilon-isopropyl)-D-Ala^10]LHRH] ({Propanoyl(3-(4-F-phenyl))}-[d1Nal]S[NMeY][dK]L[Lys(iPr)]P[dA]-NH2) | –
12.6 nM | – | CCNC(=O)[C@@H]1CCCN1C(=O)[C@H](CCCN=C(N)N)NC(=O)[C@H](CC(C)C)NC(=O)[C@@H](Cc1c[nH]c2ccccc12)NC(=O)[C@H](Cc1ccc(O)cc1)NC(=O)[C@H](CO)NC(=O)[C@H](Cc1c[nH]c2ccccc12)NC(=O)c1cc2ccccc2[nH]1 [Compound 101, (3-9)[N-(2-Indolecarbonyl)-Trp^3 -D-Trp^6 -Pro^9 NHEt]LHRH] (X16-WSY[dW]LRP-NHEt) | –
– | 0.141 nM | CC(=O)NCCCC[C@H](NC(=O)c1ccc(F)c(Cl)c1)C(=O)N[C@H](Cc1cccc2ccccc12)C(=O)N[C@@H](CO)C(=O)N(C)[C@@H](Cc1ccc(O)cc1)C(=O)N[C@H](CCCCN)C(=O)N[C@@H](CC(C)C)C(=O)N[C@@H](CCCNC(=N)N)C(=O)N1CCC[C@H]1C(=O)N[C@H](C)C(N)=O [Compound 214, N-alpha-(3-Chloro-4-Fluorobenzoyl)-Lys(N-epsilon-acetyl)-D-1-Nal-Ser-NMeTyr-D-Lys-Leu-Arg-Pro-D-AlaNH2] (X12-K(Ac)[d1Nal]S[NMeY][dK]LRP[dA]-NH2) | –
0.0575 nM | – | CCNC(=O)[C@@H]1CCCN1C(=O)[C@H](CCCNC(=N)N)NC(=O)[C@H](CC(C)C)NC(=O)[C@@H](Cc1c[nH]c2ccccc12)NC(=O)[C@H](Cc1ccc(O)cc1)NC(=O)[C@H](CO)NC(=O)[C@H](Cc1c[nH]c2ccccc12)NC(=O)CCc1ccccc1F [Compound 88, (3-9)[N-(3-(2-Fluorophenyl)propionyl) -Trp^3 -D-Trp^6 -Pro^9 NHEt]LHRH] (X6-WSY[dW]LRP-NHEt) | –
11 nM | – | CCNC(=O)[C@@H]1CCCN1C(=O)[C@H](CCCNC(=N)N)NC(=O)[C@H](CC(C)C)N(C)C(=O)[C@@H](Cc1c[nH]c2ccccc12)NC(=O)[C@H](Cc1ccc(O)cc1)NC(=O)[C@H](CO)NC(=O)CCc1c[nH]c2ccccc12 [Compound 46, N-(3-(3-Indole)propionyl)Ser-Tyr-D-Trp-N-Me-Leu-Arg-Pro-NHEt] ({Propanoyl(3-indol-3-yl)}-SY[dW][NMeL]RP-NHEt) | –
– | 0.0055 nM | CC(C)C[C@H](NC(=O)[C@@H](CO)NC(=O)[C@H](Cc1ccc(O)cc1)N(C)C(=O)[C@H](CO)NC(=O)[C@H](Cc1cccc2ccccc12)NC(=O)CCc1ccc(F)cc1)C(=O)N[C@@H](CCCNC(=N)N)C(=O)N1CCC[C@H]1C(=O)N[C@H](C)C(N)=O [Compound 180, (3-10)[N-(3-(4-Fluorophenyl)propionyl)-1-Nal^3 -NMeTyr^5 -D-Ser^6 -D-Ala^10]LHRH] ({Propanoyl(3-(4-F-phenyl))}-[1Nal]S[NMeY][dS]LRP[dA]-NH2) | –
– | 0.0257 nM | CCNC(=O)[C@@H]1CCCN1C(=O)[C@H](CCCN=C(N)N)NC(=O)[C@H](CC(C)C)NC(=O)[C@@H](Cc1c[nH]c2ccccc12)NC(=O)[C@H](Cc1ccc(O)cc1)NC(=O)[C@H](CO)NC(=O)[C@H](Cc1cccc2ccccc12)NC(=O)CCc1ccc(F)cc1 [Compound 144, (3-9)[N-(3-(4-Fluorophenyl)propionyl) -1-Nal^3 -D-Trp^6 -Pro^9 NHEt]LHRH] ({Propanoyl(3-(4-F-phenyl))}-[1Nal]SY[dW]LRP-NHEt) | –
– | 0.11 nM | CC(C)C[C@H](NC(=O)[C@@H](CCCCN)NC(=O)[C@H](Cc1ccc(O)cc1)N(C)C(=O)[C@H](CO)NC(=O)[C@@H](Cc1cccs1)NC(=O)[C@H](Cc1ccc(Cl)cc1)NC(=O)N1CCOCC1)C(=O)N[C@@H](CCCNC(=N)N)C(=O)N1CCC[C@H]1C(=O)N[C@H](C)C(N)=O [Compound 230, (2-10)[N-(alpha-Morpholinocarbonyl)-4-Cl-Phe^2 -D-Thia^3 -NMeTyr^5 -D-Lys^6 -D-Ala^10]LHRH] ({Morpholide-CO}-[Phe(4-Cl)][d2Thi]S[NMeY][dK]LRP[dA]-NH2) | –
21.9 nM | – | CCNC(=O)[C@@H]1CCCN1C(=O)[C@H](CCCNC(=N)N)NC(=O)[C@H](CC(C)C)NC(=O)[C@@H](CC(C)C)NC(=O)[C@H](Cc1ccc(O)cc1)NC(=O)[C@H](CO)NC(=O)[C@H](Cc1c[nH]c2ccccc12)NC(=O)Cc1ccccc1 [Compound 68, (3-9)[N-(Phenylacetyl)-Trp^3 -D-Leu^6 -Pro^9 -NHEt]LHRH] (PhAc-WSY[dL]LRP-NHEt) | –

Reference: patent US5140009A (Tap Pharmaceuticals, Inc., priority 1990, dated 1992)
